Experiments:
[1] = test system: pulmonary artery endothelium, mouse model with lung cancer (mutated p53 and ras), 16 Gy; experiment: Fibrosis of vascular endothelium after irradiation in mouse model with lung cancer (Example 7); format: in vivo; details: 150 mg/kg i.p. 1 hour before 16 Gy irradiation, compared to IR
Procedure: (§1) Tissue from a mouse was fixed in 10% neutral formalin for one day, and paraffin sections were prepared. The paraffin sections were then reacted for 5 minutes in each of xylene, and 95%, 90%, and 70% ethanol solutions in order to deparaffinize the paraffin around the tissue for staining. The tissue was then put into hematoxylin for 1 minute to stain the nucleus and washed with running water for 10 minutes, followed by dipping in eosin for 30 seconds to stain the cytoplasm. The tissue was then dipped in 50%, 70%, 90%, and 95% ethanol, and xylene in that order, and a drop of a mounting solution was applied thereto. The tissue was covered with a cover slide and observed with a microscope (Carl Zeiss Vision).
(§2) Tissue from a mouse was fixed in 10% neutral formalin for one day, and paraffin sections were prepared. The paraffin sections were then reacted for 5 minutes in each of xylene, and 95%, 90%, and 70% ethanol solutions in that order to deparaffinize the paraffin around the tissue for staining. For antigen activation, the tissue was soaked in a 0.1 M citric acid solution (pH 6.0) and boiled.
The tissue was then reacted in Bouin's solution for 1 minute, Weigert's hematoxylin for 10 minutes, phosphotunstic/phosphomolydic acid for 10 minutes, aniline blue for 5 minutes, and 1% acetate for 1 minute in that order. […]

[2] = test system: lung of a mouse model, 90 Gy irradiation; experiment: Radiation-induced lung tissue damage, H&E staining (Example 1); format: in vivo; details: 60 mg/kg i.p. 1 hour before 90 Gy irradiation; 2 weeks after irradiation; compared to untreated group (IR)
Procedure: as §1, with “solutions in that order to” for “solutions in order to”, “around the tissue. The tissue” for “around the tissue for staining. The tissue”
A mouse was exposed to 90 Gy radiation on the thorax in a size of 3 mm. Lung tissue from the mouse model was fixed in 10% neutral formalin, and paraffin sections were prepared. Using the hematoxylin and eosin staining method, inflammatory reactions and fibrosis of the tissue were observed. The cell nuclei were stained in blue and the cytoplasm was stained in pink. One hour before the irradiation, the mouse model received an intraperitoneal injection of 60 mg/kg 2-methoxyestradiol. Two weeks after the irradiation, inflammatory reactions and fibrosis were observed using H&E staining at the site of tissue damage.

[3] = test system: p-SMAD, Smad 2/3, α-SMA in HPAECs; experiment: Western blot of fibrosis-related proteins in irradiated HPAECs (Example 6); format: cell-based, human; details: 12 hours before 10 Gy radiation
Procedure: (§3) Human pulmonary artery endothelial cells (HPAEC) bought from Promocell were cultured in a culture chamber at a temperature of 37° C. under a 5% CO2 condition using a medium including various growth factors necessary for growth of the vascular endothelial cell.
(§4) HPAECs were plated in 3.5 cm, 6 cm, and 10 cm culture dishes and cultured in a CO2 incubator at 37° C. so that the cells were 70% to 80% confluent. 2-Methoxyestradiol was selectively pre-treated according to the test groups. 10 Gy gamma rays (^137Cs) (Atomic Energy of Canada, LTd., Canada) were radiated at a dose of 3.81 Gy/min.
After the cultured cells were irradiated, specimens in which the cells were dissolved in a solution of 150 mM sodium chloride, 40 mM Tris-Cl (pH 8.0), 0.1% NP-40 were prepared to observe intracellular proteins. Sodium dodecyl sulfate polyacrylamide gel electrophoresis (SDS-PAGE) was performed on the specimens, followed by Western blot analysis. The proteins separated by electrophoresis were transferred to a nitrocellulose membrane, and the amount of protein expression was analyzed using the immunoblotting method.
In order to observe changes in the expression amount of the proteins related to HPAEC pulmonary fibrosis according to the concentrations of 2-methoxyestradiol (0.5 μM and 1 μM), the cultured HPAECs were pre-treated with 0.5 μM or 1 μM 2-methoxyestradiol and received 10 Gy radiation 12 hours later. Western blot analysis was then performed using p-SMAD, Smad 2/3, and alpha smooth muscle actin (α-SMA) antibodies. To measure a quantitative amount of the protein, Western blot was performed using β-actin antibodies.

[4] = test system: pulmonary artery endothelium, C57BL/6 mouse, 16 Gy on the lung; experiment: Radiation-induced pulmonary fibrosis in mouse, trichrome staining of collagen (Example 5); format: in vivo; details: 150 mg/kg i.p. 1 hour before 16 Gy irradiation of the lung; compared to IR; **: P<0.01
Procedure: as §2
The tissue was then reacted in Bouin's solution for 1 minute, Weigert's hematoxylin for 10 minutes, phosphotunstic/phosphomolydic acid for 10 minutes, aniline blue for 5 minutes, and 1% acetate for 1 minute in that order. After dehydration, the tissue was sealed with a cover glass, and observed with a confocal microscope.
To observe whether the symptoms of pulmonary fibrosis induced after radiotherapy include pulmonary fibrosis of vascular endothelial cells, a C57BL/6 mouse was exposed to 16 Gy radiation on the lung. The lung was extracted from the mouse, and collagen, a protein appearing on the cross-section of aorta during the fibrosis of pulmonary artery endothelial cell, was detected by trichrome staining. The group treated with 2-methoxyestradiol was intraperitoneally injected in an amount of 150 mg/kg 1 hour before irradiation. […]

[5] = test system: blood vessels of the skin, C57BL/6 mouse, 20 Gy on the thorax; experiment: Radiation-induced in vivo vascular injury of skin (Example 2); details: compared to untreated group (IR)
Procedure: Tissue from a mouse was fixed in 10% neutral formalin for one day, and paraffin sections were prepared. The paraffin sections were then reacted for 5 minutes in each of xylene, and 95%, 90%, and 70% ethanol solutions in that order to deparaffinize the paraffin around the tissue. For antigen activation, the tissue was immersed in 0.1 M citrate (pH 6.0) and brought to a boil for 30 minutes, followed by reacting with 3% hydrogen peroxide for 15 minutes. Meanwhile, the tissue was then reacted in phosphate based saline buffer (PBS, 0.1% triton x-100 included) including CD31 (abcam, 1:100 dilution) at 4° C. for 16 hours. After washing with PBS, secondary antibodies having biotin conjugated were diluted at 1:200 and incubated at room temperature for 30 minutes. Avidin biotin complex (ABC) was applied and incubated at room temperature for 30 minutes, and 3,3′-DAB(3,3′-diaminobenzidine) was added for color detection. Hematoxylin was used for counterstaining. The tissue was then dipped in 50%, 70%, 90%, and 95% ethanol, and xylene in that order, and a drop of a mounting solution was applied thereto. The tissue was covered with a cover slide and observed with a microscope (Carl Zeiss Vision).
Skin was extracted from the mouse, and vascular changes inside the skin were observed. […]

[6] = test system: Human pulmonary artery endothelial cells (HPAEC); experiment: Immunofluorescence staining of irradiated HPAECs (Example 4); format: cell-based; details: 10 ng/mL, 12 hours before 10 Gy radiation
Procedure: as §3, §4
HPAECs were cultured on the cover slide, selectively pre-treated with 2-methoxyestradiolin according to test groups, and irradiated. HPAECs were then fixed in 10% neutral formalin for one day, and washed with phosphate buffered saline (PBS) before staining. After blocking with 2% bovine serum albumin (dissolved inPBS) before the first antibody reaction, VE-cadherin, hypoxia-inducible factor 1-alpha (HIF-1α), SMAD, p-SMAD2/3, and α-SMA antibodies, diluted at 1:100, were reacted at 4° C. for 16 hours. After washing with PBS, the second antibodies having fluorescent stains attached were diluted at 1:500 and reacted at 25° C. for 1 hour. The nuclei were stained with a fluorescent stain 4′,6-diamidino-2-phenylindole (DAPI). After washing with PBS, a drop of glycerol was applied to attach the stained cells to the glass slide.
Human pulmonary artery endothelial cells which received 10 Gy radiation were fixed in 10% neutral formalin, and reacted with phalloidin, CA-9, and VE-cadherin antibodies. Then, fluorescent-labeled secondary immunoglobulins were used to stain CA9, phalloidin, and VE-cadherin in red, green, and white, respectively. The cell nuclei were stained in blue using DAPI. The group received 10 Gy radiation 12 hours after treating HPAECs with 10 ng/mL 2-methoxyestradiol.

[7] = test system: skin tissue, C57BL/6 mouse, 20 Gy on the thorax; experiment: Radiation-induced in vivo skin damage, infiltration of inflammatory cells (Example 3); details: 2 weeks after irradiation, compared to IR
Procedure: as §1, with “solutions in that order to” for “solutions in order to”, “around the tissue. The tissue” for “around the tissue for staining. The tissue”
To observe whether inflammatory responses and fibrosis of skin occur during tissue damage induced after radiotherapy, a C57BL/6 mouse was exposed to 20 Gy radiation on the thorax in a size of 7 mm. Skin was extracted from the mouse, and infiltration of inflammatory cells in the skin tissue was observed. The group pre-treated with 2-methoxyestradiol (IR+pre-treatment2Me) received an intraperitoneal injection in an amount of 60 mg/kg 1 hour before the irradiation, and that post-treated with 2-methoxyestradiol (IR+post-treatment2Me) received an intraperitoneal injection in an amount of 60 mg/kg 24 hours after the irradiation.

[8] = 1 μM, decrease in particular at 1 μM
[9] = post-treated: 60 mg/kg i.p. 24 hours after 20 Gy irradiation
[10] = pre-treated: 60 mg/kg i.p. 1 hour before 20 Gy irradiation

In the case of `COc1cc2c(cc1O)CC[C@@H]1[C@@H]2CC[C@]2(C)[C@@H](O)CC[C@@H]12` [2-methoxyestradiol], the “collagen stained in blue around the vascular endothelium, trichrome staining” value [1] is reported as “significant decrease”, the “cell infiltration (inflammatory cells) in lung tissue, H&E staining” value [2] is reported as “significantly reduced” and the “fibrosis around blood vessels in lung tissue, H&E staining” value [2] is reported as “significantly reduced”. The “Smad 2/3 expression, Western blot” value ([3]; 0.5 μM) was “relative decrease”, the “p-SMAD expression, Western blot” value ([3]; 0.5 μM) was “relative decrease” and the “α-SMA expression, Western blot” value ([3]; 0.5 μM) was “relative decrease”. For the same compound, the “Smad 2/3 expression, Western blot” value [3, 8] was “relative decrease”, the “p-SMAD expression, Western blot” value [3, 8] was “relative decrease” and the “α-SMA expression, Western blot” value [3, 8] was “relative decrease”. The “collagen stained in blue in the aortic wall, trichrome staining” value [4] was “significant decrease”, the skin vascular injury [5, 9] was “significant reduction” and the skin vascular injury [5, 10] was “significant reduction”. For the same compound, the “CA-9 staining, immunofluorescence” value [6] was “significant decrease”, the “VE-cadherin (white around the cell membrane), immunofluorescence” value [6] was “significant increase” and the “phalloidin staining, immunofluorescence” value [6] was “significant decrease”. For the same compound, the “number of infiltrated inflammatory cells inside the skin tissue” value [7, 9] was “significantly reduced” and the “number of infiltrated inflammatory cells inside the skin tissue” value [7, 10] was “significantly reduced”.

Source: US10722526B2, “Pharmaceutical compositions for radioprotection or radiomitigation and methods for using them” (KOREA INSTITUTE OF RADIOLOGICAL & MEDICAL SCIENCES, priority 2015, dated 2020)
